Laboratory results as given in patent US20140357577A1, “HIV Membrane Fusion Inhibitors” (priority 2011, published 2014).
Starred links: 1 amine or outer side, 2 acyl side, 3 side chain; linkers in the order of their positions; H or OH if unused. *: point of attachment. cholesteryl‑oxycarbonylmethyl = CC(C)CCC[C@@H](C)[C@H]1CC[C@H]2[C@@H]3CC=C4C[C@@H](OC(=O)C*)CC[C@]4(C)[C@H]3CC[C@]12C; Suc = O=C(CCC(=O)[*:2])[*:1]; Isovaleryl = CC(C)CC(=O)*; Pentanoyl = CCCCC(=O)*; Butyryl = CCCC(=O)*

Legend:
[1] = system: HIV wild type virus strain IIIB; test: Standard Anti-Viral-Experiment (AVE), HIV-1 replication assay in MT4-LTR-EGFP cells, wild type IIIB; format: cell-based; conditions: 3 days, EGFP signal
Summary of the method: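 MT4-LTR-EGFP cells infected with HIV-1 IIIB, HXB2D or HXB2D gp41 mutants V38A/Q40H alongside serial 4-fold compound dilutions, 3 days at 37° C. EGFP read by laser-scanning microscopy; EC50 by linear interpolation against log concentration. Mutant results given as fold change in EC50 versus wild-type HXB2D.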

[2] = system: HIV mutant virus strain HXB2D with mutation Q40H in the gp41 gene; test: Standard AVE, HXB2D site directed mutant Q40H; format: cell-based, HIV-1; conditions: fold change vs wild type strain HXB2D
Source text: • Standard Anti-Viral-Experiment “AVE” (wild type HIV strain IIIB+HIV strain HXB2D side directed mutants V38A and Q40H)
The HIV-1 replication assay measures virus replication (HIV wild type virus strain 111B or HXB2D, or a HIV mutant virus strain HXB2D with mutation V38A or Q40H in the gp41 gene) as an induction of enhanced green fluorescent protein (EGFP) expression. The indicator MT4-LTR-EGFP cells contain an EGFP gene under the control of the HIV-1 LTR promoter sequence. Successful HIV-1 infection results in viral Tat protein expression and subsequent induction of EGFP expression. Compounds/peptides inhibiting HIV-1 infection are expected to reduce EGFP expression as compared to the untreated HIV-infected control.
Serial 4-fold dilutions of test compounds/peptides were mixed with HIV-1 (IIIB, HXB2D, or a HXB2D mutant virus (V38A or Q40H)) and MT4-LTR-EGFP cells and incubated at 37° C. After 3 days, the wells were examined for EGFP expression using an argon laser-scanning microscope. The effective compound/peptide concentration inhibiting 50% of the virus-induced EGFP signal (EC50) was determined by linear interpolation of the EGFP signal vs. logarithm of the compound concentration; (T20, C34 and Sifuvirtide were added as reference compounds). For the V38A and Q40H mutant viruses, results were reported as a fold change in EC50, as compared with a drug-susceptible wild type strain HXB2D, which forms the backbone of the mutant virus. • Standard AVE (50% Human Serum)

HIV-IIIB + 50% HS = test: Standard AVE (50% Human Serum), HIV-1 replication assay in MT4-LTR-EGFP cells; format: cell-based; conditions: fold change vs EC50 in the assay without human serum
Source text: The HIV-1 replication assay (with 50% human serum) measures virus replication as an induction of enhanced green fluorescent protein (EGFP) expression, in the presence of 50% human serum. The indicator MT4-LTR-EGFP cells contain an EGFP gene under the control of the HIV-1 LTR promoter sequence. Successful HIV-1 infection results in viral Tat protein expression and subsequent induction of EGFP expression. Compounds/peptides inhibiting HIV-1 infection are expected to reduce EGFP expression as compared to the untreated HIV-infected control. Compounds/peptides binding to human serum are expected to have a reduced activity for inhibiting the virus in the assay.
Serial 4-fold dilutions of test compounds/peptides were mixed with HIV-1 and MT4-LTR-EGFP cells and incubated at 37° C., in the presence of 50% human serum. After 3 days, the wells were examined for EGFP expression using an argon laser-scanning microscope. The effective compound/peptide concentration inhibiting 50% of the virus-induced EGFP signal (EC50) was determined by linear interpolation of the EGFP signal vs. logarithm of the compound concentration; T20, C34 and Sifuvirtide were added as reference compounds. Results were reported as a fold change in EC50, as compared with the acquired EC50 in the assay without human serum.

Substance: AC-ACYLACIEALIRRAQEQQEKNEAALR-NH2 [Peptide 51]
- EC50 [1]: 3 nM
- HIV-HXB2D Q40H mutant (fold change in EC50) [2]: 93
- HIV-IIIB + 50% HS (Fold change in EC50) (HIV-IIIB + 50% HS): 1

Substance: AC-ECYLACIEALIRAAQEQQEKNEAALR-NH2 [Peptide 45]
- HIV-HXB2D Q40H mutant (fold change in EC50) [2]: 64
- HIV-IIIB + 50% HS (Fold change in EC50) (HIV-IIIB + 50% HS): 1

Substance: ANYAALIEALIRAAQEQQEKNEAALR [Peptide 2]
- EC50 [1]: 77 nM
- HIV-HXB2D Q40H mutant (fold change in EC50) [2]: >28
- HIV-IIIB + 50% HS (Fold change in EC50) (HIV-IIIB + 50% HS): 1

Substance: ANYLALIEELIRAAQEQQEKNEAALR [Peptide 10]
- EC50 [1]: 4 nM
- HIV-HXB2D Q40H mutant (fold change in EC50) [2]: >695
- HIV-IIIB + 50% HS (Fold change in EC50) (HIV-IIIB + 50% HS): 0.4

Substance: Ac-ACYAACIEALIRAAQEQQEKNEAALR-NH2 [Peptide 66]
- EC50 [1]: 3 nM
- HIV-HXB2D Q40H mutant (fold change in EC50) [2]: 231
- HIV-IIIB + 50% HS (Fold change in EC50) (HIV-IIIB + 50% HS): 2

Substance: Ac-ACYAACIEALIRAAQEQQEKNEAALR-NH2 [Peptide 68]
- HIV-HXB2D Q40H mutant (fold change in EC50) [2]: >67
- HIV-IIIB + 50% HS (Fold change in EC50) (HIV-IIIB + 50% HS): 2

Substance: Ac-ACYLACIEALIRKAQEQQEKNEAALR-NH2 [Peptide 48]
- EC50 [1]: 3 nM
- HIV-HXB2D Q40H mutant (fold change in EC50) [2]: 62
- HIV-IIIB + 50% HS (Fold change in EC50) (HIV-IIIB + 50% HS): 1

Substance: Ac-ECYAACIEELIRKAQEQQEKNEAALR-NH2 [Peptide 53]
- EC50 [1]: 21 nM
- HIV-HXB2D Q40H mutant (fold change in EC50) [2]: >164
- HIV-IIIB + 50% HS (Fold change in EC50) (HIV-IIIB + 50% HS): 0.3

Substance: Ac-ECYLACIEELIRKAQEQQEKNEAALR-NH2 [Peptide 37]
- HIV-HXB2D Q40H mutant (fold change in EC50) [2]: 108
- HIV-IIIB + 50% HS (Fold change in EC50) (HIV-IIIB + 50% HS): 0.7

Substance: Ac-ECYLRCIEALIRAAQEQQEKNEAALR-NH2 [Peptide 50]
- EC50 [1]: 2 nM
- HIV-HXB2D Q40H mutant (fold change in EC50) [2]: 33
- HIV-IIIB + 50% HS (Fold change in EC50) (HIV-IIIB + 50% HS): 2

Substance: Butanoyl-ECYLACIEELIRKAQEQQEKNEAALR-NH2 (Butyryl-ECYLACIEELIRKAQEQQEKNEAALR-NH2; cysteine pairing not given here) [Peptide 40]
- EC50 [1]: 1 nM
- HIV-HXB2D Q40H mutant (fold change in EC50) [2]: 84
- HIV-IIIB + 50% HS (Fold change in EC50) (HIV-IIIB + 50% HS): 1

Substance: ENYLALIEALIRAAQEQQEKNEAALL [Peptide 9]
- EC50 [1]: 3 nM
- HIV-HXB2D Q40H mutant (fold change in EC50) [2]: 1196
- HIV-IIIB + 50% HS (Fold change in EC50) (HIV-IIIB + 50% HS): 0.4

Substance: ENYLALIEALIRAAQEQQEKNEAALR [Peptide 8]
- EC50 [1]: 2 nM
- HIV-HXB2D Q40H mutant (fold change in EC50) [2]: 900
- HIV-IIIB + 50% HS (Fold change in EC50) (HIV-IIIB + 50% HS): 0.4

Substance: Isovaleryl-ANYAALIEALIRAAQEQQEKNEAALR-NH2 (SMILES CC[C@H](C)[C@H](NC(=O)[C@H](CC(C)C)NC(=O)[C@H](C)NC(=O)[C@H](CCC(=O)O)NC(=O)[C@@H](NC(=O)[C@H](CC(C)C)NC(=O)[C@H](C)NC(=O)[C@H](C)NC(=O)[C@H](Cc1ccc(O)cc1)NC(=O)[C@H](CC(N)=O)NC(=O)[C@H](C)NC(=O)CC(C)C)[C@@H](C)CC)C(=O)N[C@@H](CCCNC(=N)N)C(=O)N[C@@H](C)C(=O)N[C@@H](C)C(=O)N[C@@H](CCC(N)=O)C(=O)N[C@@H](CCC(=O)O)C(=O)N[C@@H](CCC(N)=O)C(=O)N[C@@H](CCC(N)=O)C(=O)N[C@@H](CCC(=O)O)C(=O)N[C@@H](CCCCN)C(=O)N[C@@H](CC(N)=O)C(=O)N[C@@H](CCC(=O)O)C(=O)N[C@@H](C)C(=O)N[C@@H](C)C(=O)N[C@@H](CC(C)C)C(=O)N[C@@H](CCCNC(=N)N)C(N)=O) [Peptide 17]
- EC50 [1]: 24 nM
- HIV-HXB2D Q40H mutant (fold change in EC50) [2]: >37
- HIV-IIIB + 50% HS (Fold change in EC50) (HIV-IIIB + 50% HS): 0.9

Substance: Pentanoyl-ANYAALIEALIRAAQEQQEKNEAALR-NH2 (SMILES CCCCC(=O)N[C@@H](C)C(=O)N[C@@H](CC(N)=O)C(=O)N[C@@H](Cc1ccc(O)cc1)C(=O)N[C@@H](C)C(=O)N[C@@H](C)C(=O)N[C@@H](CC(C)C)C(=O)N[C@H](C(=O)N[C@@H](CCC(=O)O)C(=O)N[C@@H](C)C(=O)N[C@@H](CC(C)C)C(=O)N[C@H](C(=O)N[C@@H](CCCNC(=N)N)C(=O)N[C@@H](C)C(=O)N[C@@H](C)C(=O)N[C@@H](CCC(N)=O)C(=O)N[C@@H](CCC(=O)O)C(=O)N[C@@H](CCC(N)=O)C(=O)N[C@@H](CCC(N)=O)C(=O)N[C@@H](CCC(=O)O)C(=O)N[C@@H](CCCCN)C(=O)N[C@@H](CC(N)=O)C(=O)N[C@@H](CCC(=O)O)C(=O)N[C@@H](C)C(=O)N[C@@H](C)C(=O)N[C@@H](CC(C)C)C(=O)N[C@@H](CCCNC(=N)N)C(N)=O)[C@@H](C)CC)[C@@H](C)CC) [Peptide 14]
- EC50 [1]: 13 nM
- HIV-HXB2D Q40H mutant (fold change in EC50) [2]: >67
- HIV-IIIB + 50% HS (Fold change in EC50) (HIV-IIIB + 50% HS): 2

Substance: Suc-ANYLALIEALIRAAQEQQEKNEAALRGSGC(cholesteryl-oxycarbonylmethyl)-NH2 (Suc-ANYLALIEALIRAAQEQQEKNEAALRGSGC(cholesteryl‑oxycarbonylmethyl)-NH2; SMILES CC[C@H](C)[C@H](NC(=O)[C@H](CC(C)C)NC(=O)[C@H](C)NC(=O)[C@H](CCC(=O)O)NC(=O)[C@@H](NC(=O)[C@H](CC(C)C)NC(=O)[C@H](C)NC(=O)[C@H](CC(C)C)NC(=O)[C@H](Cc1ccc(O)cc1)NC(=O)[C@H](CC(N)=O)NC(=O)[C@H](C)NC(=O)CCC(=O)O)[C@@H](C)CC)C(=O)N[C@@H](CCCNC(=N)N)C(=O)N[C@@H](C)C(=O)N[C@@H](C)C(=O)N[C@@H](CCC(N)=O)C(=O)N[C@@H](CCC(=O)O)C(=O)N[C@@H](CCC(N)=O)C(=O)N[C@@H](CCC(N)=O)C(=O)N[C@@H](CCC(=O)O)C(=O)N[C@@H](CCCCN)C(=O)N[C@@H](CC(N)=O)C(=O)N[C@@H](CCC(=O)O)C(=O)N[C@@H](C)C(=O)N[C@@H](C)C(=O)N[C@@H](CC(C)C)C(=O)N[C@@H](CCCNC(=N)N)C(=O)NCC(=O)N[C@@H](CO)C(=O)NCC(=O)N[C@@H](CSCC(=O)O[C@H]1CC[C@@]2(C)C(=CC[C@H]3[C@@H]4CC[C@H]([C@H](C)CCCC(C)C)[C@@]4(C)CC[C@@H]32)C1)C(N)=O) [Peptide 35]
- EC50 [1]: 0.3 nM
- HIV-HXB2D Q40H mutant (fold change in EC50) [2]: 24

Substance: Suc-ECYLACIEELIRKAQEQQEKNEAALR-NH2 (cysteine pairing not given here) [Peptide 90]
- EC50 [1]: 1 nM
- HIV-HXB2D Q40H mutant (fold change in EC50) [2]: 65

Substance: Suc-ENYLALIEELIRKAQEQQEKNEAALR-NH2 (SMILES CC[C@H](C)[C@H](NC(=O)[C@H](CC(C)C)NC(=O)[C@H](C)NC(=O)[C@H](CC(C)C)NC(=O)[C@H](Cc1ccc(O)cc1)NC(=O)[C@H](CC(N)=O)NC(=O)[C@H](CCC(=O)O)NC(=O)CCC(=O)O)C(=O)N[C@@H](CCC(=O)O)C(=O)N[C@@H](CCC(=O)O)C(=O)N[C@@H](CC(C)C)C(=O)N[C@H](C(=O)N[C@@H](CCCNC(=N)N)C(=O)N[C@@H](CCCCN)C(=O)N[C@@H](C)C(=O)N[C@@H](CCC(N)=O)C(=O)N[C@@H](CCC(=O)O)C(=O)N[C@@H](CCC(N)=O)C(=O)N[C@@H](CCC(N)=O)C(=O)N[C@@H](CCC(=O)O)C(=O)N[C@@H](CCCCN)C(=O)N[C@@H](CC(N)=O)C(=O)N[C@@H](CCC(=O)O)C(=O)N[C@@H](C)C(=O)N[C@@H](C)C(=O)N[C@@H](CC(C)C)C(=O)N[C@@H](CCCNC(=N)N)C(N)=O)[C@@H](C)CC) [Peptide 19]
- EC50 [1]: 1 nM
- HIV-HXB2D Q40H mutant (fold change in EC50) [2]: 151
